# Assay results reported in publication PMC3486420, “In Vitro and In Vivo Characterizations of Chiglitazar, a Newly Identified PPAR Pan-Agonist” (PPAR Research, 2012).
# Experiments:
# db/db mice = assay: Gene expression by RT-PCR in tissues of treated db/db mice; assay type: in vivo, mouse; conditions: 14 days oral, chiglitazar 20 mg kg^−1 compared with rosiglitazone 5 mg kg^−1
# Method: (§1) Total RNA was extracted from cells or tissues with an RNeasy minikit (Qiagen, Valencia, CA, USA). The first-strand cDNA was synthesized using the oligo(dT) primers, followed by using SuperScript II reverse transcriptase (Invitrogen) according to the manufacturer's instructions. The PCR amplifications were performed in 10 μL of reaction mixture volume containing 0.8 μL of cDNA, 10 mM Tris-HCl (pH 8.3), 50 mM KCl, 1.5 mM MgCl2, 0.1% Triton X-100, 0.2 mM deoxynucleotide triphosphates, 0.4 μM primers, and 0.25 U of Taq polymerase (TaKaRa Biotechnology Co., Ltd, China). Taq DNA polymerase was added to each tube after a treatment of 2 min at 94°C. This was followed by 22–30 cycles of denaturation (23 s at 94°C), annealing (20 s at 55°C), extension (30 s at 72°C), and a final extension step of 2 min. PCR products were analyzed by electrophoresis on a 1.5% agarose gel stained with ethidium bromide.
# Male db/db mice (BKS.Cg-m +/+ LEPR^db) in 6-7 weeks were purchased from The Jackson Laboratory (Bar Harbor, ME, USA). Male KKAy and C57BL/6J mice in 8–10 weeks were obtained from the Institute of Animal Science, Chinese Academy of Medical Sciences and Peking Union Medical College (Beijing, China). […] Plasma glucose levels were examined at various time points by Accu-Chek Advantage II Glucose Strips (Roche Diagnostics, Basel, Switzerland) and measured by Accu-Chek Advantage (Roche Diagnostics). […]
# PPARα = target: T1, PPARα (Homo sapiens, UniProt Q07869); assay: PPARα transactivation reporter gene assay in SMMC-7721 cells; assay type: cell-based
# T1 sequence (Q07869 1-468): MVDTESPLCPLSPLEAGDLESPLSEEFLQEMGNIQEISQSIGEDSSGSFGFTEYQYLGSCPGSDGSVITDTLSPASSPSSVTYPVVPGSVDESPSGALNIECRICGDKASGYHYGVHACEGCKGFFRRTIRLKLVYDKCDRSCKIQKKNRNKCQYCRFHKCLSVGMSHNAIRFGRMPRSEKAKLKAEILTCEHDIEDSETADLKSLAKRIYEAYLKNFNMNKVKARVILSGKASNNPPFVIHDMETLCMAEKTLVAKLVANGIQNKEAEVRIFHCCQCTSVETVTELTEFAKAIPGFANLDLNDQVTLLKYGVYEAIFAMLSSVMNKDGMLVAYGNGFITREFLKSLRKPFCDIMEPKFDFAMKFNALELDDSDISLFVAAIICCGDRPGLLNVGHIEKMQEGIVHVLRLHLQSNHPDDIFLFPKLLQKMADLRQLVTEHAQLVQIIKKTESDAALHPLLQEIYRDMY
# T1 sequence (P19793 1-462 partner): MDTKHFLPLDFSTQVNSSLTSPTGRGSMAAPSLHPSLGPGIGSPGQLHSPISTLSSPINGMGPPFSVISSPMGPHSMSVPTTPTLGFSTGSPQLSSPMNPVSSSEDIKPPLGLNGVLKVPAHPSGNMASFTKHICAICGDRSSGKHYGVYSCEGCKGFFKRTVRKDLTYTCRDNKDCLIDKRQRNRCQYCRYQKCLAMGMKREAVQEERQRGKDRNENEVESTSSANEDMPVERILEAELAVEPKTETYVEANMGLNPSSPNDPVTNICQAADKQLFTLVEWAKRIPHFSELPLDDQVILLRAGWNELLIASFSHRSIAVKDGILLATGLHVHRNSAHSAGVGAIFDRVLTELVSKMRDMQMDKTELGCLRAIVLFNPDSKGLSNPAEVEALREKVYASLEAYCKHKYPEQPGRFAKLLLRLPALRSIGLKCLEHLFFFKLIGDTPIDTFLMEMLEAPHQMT
# RAW267.4 cells = assay: Gene expression by RT-PCR in RAW267.4 cells; assay type: cell-based, mouse; conditions: 48 h, 10 μM chiglitazar
# Excerpt: cDNAs for human retinoid X receptor (hRXR), PPARα, PPARγ, and PPARδ were obtained by reverse transcriptase polymerase chain reaction (RT-PCR) from human liver or adipose tissues. Amplified cDNAs were cloned into pcDNA3.1 expression vector (Invitrogen, Carlsbad, CA, USA). The integrity and fidelity of all constructs made were verified by DNA sequencing. Luciferase reporter plasmids, ACOX promoter for PPARγ and pHD(X3)-luc for PPARα, were kind gifts of Drs. TM McIntyre (University of Utah, USA) and RA Rachubinski (University of Alberta, Canada), respectively. PPRE-luc for PPARδ was constructed based on the previous report by insertion of the annealed oligonucleotides having four copies of the CYP4A6 PPRE (4 × […]) into the upstream of the luciferase coding sequence in pGL3-promoter vector (Promega, Madison, WI, USA). pCMVβGal was purchased from Clontech (Palo Alto, CA, USA). The mouse 3T3-L1 preadipocyte cell line, skeletal muscle C2C12 cell line, and macrophage RAW267.4 cell line and the human osteosarcoma U2OS cell line were obtained from the American Type Culture Collection (ATCC, Rockville, MD, USA). The human hepatoma SMMC-7721 cell line was obtained from the Cell Culture Center of Chinese Academy of Medical Sciences (Beijing, China). Cell lines were cultured in medium of DMEM (3T3-L1, C2C12, and SMMC-7721), RPMI 1640 (RAW267.4), or McCoy's 5A (U2OS), containing 10% fetal bovine serum (FBS), 50 μg/mL streptomycin, and 50 units/mL penicillin at 37°C in a humidified incubator with 5% CO2.
# as §1
# Figure 1 In vitro regulation of gene expression by chiglitazar. (a) Endogenous expression of individual PPAR subtypes in cell lines. […]. The expression change of referred genes induced by different compounds was normalized against internal control (36B4 or GAPDH) and then compared with vehicle control treatment. The data shown are averaged from 3 independent experiments.
# beagle dogs = assay: Heart weight in beagle dogs, chronic treatment; assay type: in vivo, dog; conditions: same regime (6 months), 54 mg kg^−1 (~1000 mg/m^2), data not shown
structure (smiles),measurement,setting,value
"O=C(c1ccc(F)cc1)c1ccccc1NC(Cc1ccc(OCCn2c3ccccc3c3ccccc32)cc1)C(=O)O (stereo not drawn) [Chi, 2-[(2-(4-fluorobenzoyl)phenyl)amino]-3-[4-(2-carbazolylethoxy)-phenyl]-propionic acid]",Expression of UCP1 in adipose tissue,db/db mice,greater degree of upregulation
same,EC50,"PPARα; 24 h treatment, luciferase reporter, hRXR cotransfected, ia: inactive at 10 μM",1100 ± 300 nM
same,PPARα % Max,PPARα; max response compared with WY at 50 μM,142%
same,Expression of PPARα and/or PPARδ downstream gene SRA,"RAW267.4 cells; 50 μM WY14643, 5 μM 2-Bro, compared with rosiglitazone 10 μM",more significantly upregulated
same,Expression of PPARγ downstream gene CD36,"RAW267.4 cells; 10 μM rosiglitazone, vs vehicle",upregulated
same,Heart weight,beagle dogs,did not induce significant increase
